From patent publication US20250034212A1, “PEPTIDE” (PEPTIDREAM INC., priority 2021, published 2025)
Starred links: 1 amine or outer side, 2 acyl side, 3 side chain; linkers in the order of their positions; H or OH if unused. Positions of bridges follow the written chain, without caps; N, C: chain ends. Non-standard residues stand in square brackets, D forms with d. Residues, ends and D or L forms follow the SMILES beside them. Groups on a side chain read outwards from the residue. No end group written: not given here. *: point of attachment. KCOmeglumine = N6-(methyl-((2S,3R,4R,5R)-2,3,4,5,6-pentahydroxyhexyl)carbamoyl)-L-lysine, CN(C[C@H](O)[C@@H](O)[C@H](O)[C@H](O)CO)C(=O)NCCCC[C@H](N[*:1])C(=O)[*:2]; KCOpipzaa = N6-(4-(carboxymethyl)piperazine-1-carbonyl)-L-lysine, O=C(NCCCC[C@H](N[*:1])C(=O)[*:2])N1CCN(CC(=O)[*:3])CC1; Meglumine = CN(C[C@H](O)[C@@H](O)[C@H](O)[C@H](O)CO)*; Trp(7-aza) = N[C@@H](Cc1c[nH]c2ncccc12)C(=O)O; Piperazinyl(4-CH2COOH) = O=C(O)CN1CCN(*)CC1; 1Nal = N[C@@H](Cc1cccc2ccccc12)C(=O)O; Gly(NCH2CH2Ph) = O=C(O)CNCCc1ccccc1; 4Pal = N[C@@H](Cc1ccncc1)C(=O)O; CO = O=C([*:1])[*:2]

Key:
recombinant human TGF-β1 = target: T1, recombinant human TGF-β1 (Homo sapiens, UniProt P01137); assay: SBE reporter assay in SBE reporter-HEK293 cells, TGF-β1 stimulation; format: cell-based; details: TGF-β1 0.13 nM, 18 hours; for inhibition at 62 pM: peptide 0.062 nM; for inhibition at 0.000185 µM: peptide 0.185 nM; for inhibition at 0.00056 µM: peptide 0.56 nM; for inhibition at 0.0017 µM: peptide 1.7 nM; for inhibition at 0.005 µM: peptide 5.0 nM; for inhibition at 0.015 µM: peptide 15.0 nM; for inhibition at 75 pM: peptide 0.075 nM; for inhibition at 0.00075 µM: peptide 0.75 nM; for inhibition at 0.0075 µM: peptide 7.5 nM; for inhibition at 0.075 µM: peptide 75.0 nM
T1 construct: purchased R&D systems
T1 sequence (P01137 279-390 limits assumed): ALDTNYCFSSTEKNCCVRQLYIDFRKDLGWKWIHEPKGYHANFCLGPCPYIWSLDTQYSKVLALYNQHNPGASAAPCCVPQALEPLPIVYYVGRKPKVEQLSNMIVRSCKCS
Excerpt: The inhibitory activity of the peptide can be calculated without limitation while the maximum signal induced by TGF-β is set to 0% inhibition and no stimulation is set to 100% inhibition. When the peptide is used at an appropriate concentration, for example, at the optimal concentration, the inhibitory activity is not limited but the inhibition is 5% or more, 10% or more, 20% or more, 30% or more, 40% or more, 50% or more, 60% or more, 70% or more, 80% or more, or 90% or more.
In this Example, the TGF-β1 inhibitory activity of the peptide of the present invention consisting of the amino acid sequence set forth in SEQ ID NOs: 2-33 synthesized in Examples 1 to 5 and 7 was evaluated by an SBE reporter assay using the SBE reporter-HEK293 cell system (BP Bioscience) as follows.
SBE reporter-HEK293 cells were cultured in E-MEM (Wako) containing 10% FBS (Sigma). The cells were detached using Accutase (Innovative Cell Technologies), suspended in E-MEM containing 0.5% FBS, seeded onto a 96-well plate(s) at a concentration of 45,000 cells per well, and cultured overnight. The next day, the peptide was added and allowed to stand for 20 min, and recombinant human TGF-β1 (R&D systems) or recombinant human TGF-β2 (R&D systems) was then added at 0.13 nM and cultured for 18 hours.
Thereafter, luciferase assay ONE-Glo reagent was added to each well and the plate was shaken for 5 min. A SpectraMax Paradigm multimode microplate reader (Molecular Devices) was then used for signal detection. The obtained signals were analyzed by GraphPad Prism. The inhibitory activity of the peptide was calculated while the maximum signal induced by TGF-β was set to 0% inhibition and no stimulation was set to 100% inhibition.

[1] = target: T2, recombinant human TGF-β1 (R&D systems) (human, UniProt P01137 279-390); assay: cell-based or functional assay
T2 sequence (P01137 279-390 limits assumed): as above

[2] = target: T2, recombinant human TGF-β1 (R&D systems); assay: cell-based or functional assay; remark: listed apart in the source

| inhibition at 62 pM (recombinant human TGF-β1) [%] | inhibition at 0.000185 µM (recombinant human TGF-β1) [%] | inhibition at 0.00056 µM (recombinant human TGF-β1) [%] | inhibition at 0.0017 µM (recombinant human TGF-β1) [%] | inhibition at 0.005 µM (recombinant human TGF-β1) [%] | inhibition at 0.015 µM (recombinant human TGF-β1) [%] | inhibition at 75 pM (recombinant human TGF-β1) [%] | inhibition at 0.00075 µM (recombinant human TGF-β1) [%] | inhibition at 0.0075 µM (recombinant human TGF-β1) [%] | inhibition at 0.075 µM (recombinant human TGF-β1) [%] | Molecule | further results |
| --- | --- | --- | --- | --- | --- | --- | --- | --- | --- | --- | --- |
| 10.2 | 26.9 | 58.9 | 87.8 | 97.1 | 98.8 |  |  |  |  | CC(C)[C@@H]1NC(=O)CN(CCc2ccccc2)C(=O)[C@H](CCC(=O)O)NC(=O)[C@H](CC(=O)O)NC(=O)[C@H](Cc2ccncc2)NC(=O)[C@H](C(C)C)NC(=O)[C@H](CC(N)=O)NC(=O)[C@H](C(C)C)NC(=O)[C@H](C(C)C)NC(=O)[C@H](Cc2cccc3ccccc23)NC(=O)[C@H](Cc2ccccc2)NC(=O)CSC[C@@H](C(=O)NCC(N)=O)NC(=O)[C@H](CCCCNC(=O)N2CCN(CC(=O)O)CC2)NC(=O)[C@H](Cc2c[nH]cn2)NC(=O)[C@H](Cc2ccc(O)cc2)NC(=O)[C@H](Cc2cccc3ccccc23)NC1=O [TGFb1_021] ({CH2CO}-F[1Nal]VVNV[4Pal]DE[Gly(NCH2CH2Ph)]V[1Nal]YHK([CO-Piperazinyl(4-CH2COOH)])CG-NH2; thioether N-16) |  |
|  |  |  |  |  |  | 21.7 | 60.2 | 97.2 | 100 | CC(C)[C@@H]1NC(=O)CN(CCc2ccccc2)C(=O)[C@H](CCCCNC(=O)N2CCN(CC(=O)O)CC2)NC(=O)[C@H](CC(=O)O)NC(=O)[C@H](Cc2ccncc2)NC(=O)[C@H](C(C)C)NC(=O)[C@H](CC(N)=O)NC(=O)[C@H](C(C)C)NC(=O)[C@H](C(C)C)NC(=O)[C@H](Cc2c[nH]c3ncccc23)NC(=O)[C@H](Cc2ccccc2)NC(=O)CSC[C@@H](C(=O)NCC(N)=O)NC(=O)[C@H](C(C)C)NC(=O)[C@H](Cc2c[nH]cn2)NC(=O)[C@H](Cc2ccc(O)cc2)NC(=O)[C@H](Cc2cccc3ccccc23)NC1=O [TGFb1_017] ({CH2CO}-F[Trp(7-aza)]VVNV[4Pal]DK([CO-Piperazinyl(4-CH2COOH)])[Gly(NCH2CH2Ph)]V[1Nal]YHVCG-NH2; thioether N-16) |  |
|  |  |  |  |  |  | 0.1 | 37.5 | 83.5 | 96.7 | CC(C)[C@@H]1NC(=O)CN(CCc2ccccc2)C(=O)[C@H](CC(=O)O)NC(=O)[C@H](CC(=O)O)NC(=O)[C@H](Cc2ccncc2)NC(=O)[C@H](C(C)C)NC(=O)[C@H](CC(N)=O)NC(=O)[C@H](CCCCN)NC(=O)[C@H](C(C)C)NC(=O)[C@H](Cc2cccc3ccccc23)NC(=O)[C@H](Cc2ccccc2)NC(=O)CSC[C@@H](C(=O)NCC(N)=O)NC(=O)[C@H](C(C)C)NC(=O)[C@H](Cc2c[nH]cn2)NC(=O)[C@H](Cc2ccc(O)cc2)NC(=O)[C@H](Cc2cccc3ccccc23)NC1=O [TGFb1_007] ({CH2CO}-F[1Nal]VKNV[4Pal]DD[Gly(NCH2CH2Ph)]V[1Nal]YHVCG-NH2; thioether N-16) |  |
| 2.53 | 9.14 | 28.4 | 59.4 | 84.9 | 95.5 |  |  |  |  | CC(C)[C@@H]1NC(=O)CN(CCc2ccccc2)C(=O)[C@H](CC(=O)O)NC(=O)[C@H](CC(=O)O)NC(=O)[C@H](Cc2ccncc2)NC(=O)[C@H](C(C)C)NC(=O)[C@H](CC(N)=O)NC(=O)[C@H](C(C)C)NC(=O)[C@H](C(C)C)NC(=O)[C@H](Cc2cccc3ccccc23)NC(=O)[C@H](Cc2ccccc2)NC(=O)CSC[C@@H](C(=O)NCC(N)=O)NC(=O)[C@H](CCC(=O)O)NC(=O)[C@H](Cc2c[nH]cn2)NC(=O)[C@H](Cc2ccc(O)cc2)NC(=O)[C@H](Cc2cccc3ccccc23)NC1=O [TGFb1_027] ({CH2CO}-F[1Nal]VVNV[4Pal]DD[Gly(NCH2CH2Ph)]V[1Nal]YHECG-NH2; thioether N-16) |  |
|  |  |  |  |  |  | 0 | 64.8 | 97.2 | 98.8 | CC(C)[C@@H]1NC(=O)CN(CCc2ccccc2)C(=O)[C@H](CC(=O)O)NC(=O)[C@H](CC(=O)O)NC(=O)[C@H](Cc2ccncc2)NC(=O)[C@H](C(C)C)NC(=O)[C@H](CC(N)=O)NC(=O)[C@H](CCCCNC(=O)N(C)C[C@H](O)[C@@H](O)[C@H](O)[C@H](O)CO)NC(=O)[C@H](C(C)C)NC(=O)[C@H](Cc2cccc3ccccc23)NC(=O)[C@H](Cc2ccccc2)NC(=O)CSC[C@@H](C(=O)NCC(N)=O)NC(=O)[C@H](C(C)C)NC(=O)[C@H](Cc2c[nH]cn2)NC(=O)[C@H](Cc2ccc(O)cc2)NC(=O)[C@H](Cc2cccc3ccccc23)NC1=O [TGFb1_014] ({CH2CO}-F[1Nal]VK([CO-Meglumine])NV[4Pal]DD[Gly(NCH2CH2Ph)]V[1Nal]YHVCG-NH2; thioether N-16) |  |
| 12 | 16.9 | 32.4 | 63.7 | 85.8 | 96.8 |  |  |  |  | CC(C)[C@@H]1NC(=O)CN(CCc2ccccc2)C(=O)[C@H](CCC(=O)O)NC(=O)[C@H](CC(=O)O)NC(=O)[C@H](Cc2ccncc2)NC(=O)[C@H](C(C)C)NC(=O)[C@H](CC(N)=O)NC(=O)[C@H](CCCCNC(=O)N(C)C[C@H](O)[C@@H](O)[C@H](O)[C@H](O)CO)NC(=O)[C@H](C(C)C)NC(=O)[C@H](Cc2cccc3ccccc23)NC(=O)[C@H](Cc2ccccc2)NC(=O)CSC[C@@H](C(=O)NCC(N)=O)NC(=O)[C@H](CCC(=O)O)NC(=O)[C@H](Cc2c[nH]cn2)NC(=O)[C@H](Cc2ccc(O)cc2)NC(=O)[C@H](Cc2cccc3ccccc23)NC1=O [TGFb1_029] ({CH2CO}-F[1Nal]VK([CO-Meglumine])NV[4Pal]DE[Gly(NCH2CH2Ph)]V[1Nal]YHECG-NH2; thioether N-16) |  |
|  |  |  |  |  |  | 2.7 | 53 | 94.8 | 99.6 | CC(C)[C@@H]1NC(=O)CN(CCc2ccccc2)C(=O)[C@H](CC(=O)O)NC(=O)[C@H](CC(=O)O)NC(=O)[C@H](Cc2ccncc2)NC(=O)[C@H](C(C)C)NC(=O)[C@H](CC(N)=O)NC(=O)[C@H](C(C)C)NC(=O)[C@H](C(C)C)NC(=O)[C@H](Cc2cccc3ccccc23)NC(=O)[C@H](Cc2ccccc2)NC(=O)CSC[C@@H](C(=O)NCC(N)=O)NC(=O)[C@H](C(C)C)NC(=O)[C@H](Cc2c[nH]cn2)NC(=O)[C@H](Cc2ccncc2)NC(=O)[C@H](Cc2cccc3ccccc23)NC1=O [TGFb1_009] ({CH2CO}-F[1Nal]VVNV[4Pal]DD[Gly(NCH2CH2Ph)]V[1Nal][4Pal]HVCG-NH2; thioether N-16) |  |
|  |  |  |  |  |  |  |  |  |  | {CH2CO}-F[1Nal]VVNV[4Pal]D[KCOmeglumine][Gly(NCH2CH2Ph)]V[1Nal]YH[KCOpipzaa]CG-NH2 (thioether N-16; SMILES CC(C)[C@@H]1NC(=O)CN(CCc2ccccc2)C(=O)[C@H](CCCCNC(=O)N(C)C[C@H](O)[C@@H](O)[C@H](O)[C@H](O)CO)NC(=O)[C@H](CC(=O)O)NC(=O)[C@H](Cc2ccncc2)NC(=O)[C@H](C(C)C)NC(=O)[C@H](CC(N)=O)NC(=O)[C@H](C(C)C)NC(=O)[C@H](C(C)C)NC(=O)[C@H](Cc2cccc3ccccc23)NC(=O)[C@H](Cc2ccccc2)NC(=O)CSC[C@@H](C(=O)NCC(N)=O)NC(=O)[C@H](CCCCNC(=O)N2CCN(CC(=O)O)CC2)NC(=O)[C@H](Cc2c[nH]cn2)NC(=O)[C@H](Cc2ccc(O)cc2)NC(=O)[C@H](Cc2cccc3ccccc23)NC1=O) [TGFb1_023] | SBE reporter % inhibition, peptide 0.062 nM [1]: 8.58%; SBE reporter % inhibition, peptide 0.185 nM [1]: 24.4%; SBE reporter % inhibition, peptide 0.56 nM [1]: 49.7%; SBE reporter % inhibition, peptide 1.7 nM [1]: 82.3%; SBE reporter % inhibition, peptide 5.0 nM [1]: 96%; SBE reporter % inhibition, peptide 15.0 nM [1]: 99.5% |
|  |  |  |  |  |  |  |  |  |  | {CH2CO}-F[1Nal]VVNV[4Pal]DD[Gly(NCH2CH2Ph)]V[1Nal]YHVCG (thioether N-16; not fully specified (C-terminus), cyclic peptide; C-terminal G is a linker) [TGFb1_006] | SBE reporter % inhibition, peptide 0.075 nM [2]: 2.8%; SBE reporter % inhibition, peptide 0.75 nM [2]: 69.3%; SBE reporter % inhibition, peptide 7.5 nM [2]: 97.1%; SBE reporter % inhibition, peptide 75.0 nM [2]: 99.7% |
